Source: publication PMC3103407 (2011)
Changes are numbered by the printed parent chain. In names and notes the source's numbering stands.

B1: Gap1p (Saccharomyces cerevisiae S288C; K16R/K9R) (protein)
chain: MSNTSSYERNNPDNLRHNGITIDSEFLTQEPITIPSNGSAVSIDETGSGSKWQDFKDSFKRVKPIEVDPNLSEAEKVAIITAQTPLKHHLKNRHLQMIAIGGAIGTGLLVGSGTALRTGGPASLLIGWGSTGTMIYAMVMALGELAVIFPISGGFTTYATRFIDESFGYANNFNYMLQWLVVLPLEIVSASITVNFWGTDPKYRDGFVALFWLAIVIINMFGVKGYGEAEFVFSFIKVITVVGFIILGIILNCGGGPTGGYIGGKYWHDPGAFAGDTPGAKFKGVCSVFVTAAFSFAGSELVGLAASESVEPRKSVPKAAKQVFWRITLFYILSLLMIGLLVPYNDKSLIGASSVDAAASPFVIAIKTHGIKGLPSVVNVVILIAVLSVGNSAIYACSRTMVALAEQRFLPEIFSYVDRKGRPLVGIAVTSAFGLIAFVAASKKEGEVFNWLLALSGLSSLFTWGGICICHIRFRKALAAQGRGLDELSFKSPTGVWGSYWGLFMVIIMFIAQFYVAVFPVGDSPSAEGFFEAYLSFPLVMVMYIGHKIYKRNWKLFIPAEKMDIDTGRREVDLDLLKQEIAEEKAIMATKPRWYRIWNFWC
B2: Gap1p (Saccharomyces cerevisiae S288C; A297V/K16R/K9R) (protein)
chain: B1 chain with A297V

Columns and labels:
Gap1p [1] = molecular target: T1, Gap1p (Saccharomyces cerevisiae, UniProt P19145, A297V/K16R/K9R); experiment: competitive inhibition of […]-glycine uptake in yeast cells; assay type: cell-based
T1 sequence (P19145 1-602 K9R/K16R/A297V): B1 chain with A297V

Gap1p [2] = molecular target: T2, Gap1p (Saccharomyces cerevisiae, UniProt P19145, K16R/K9R); experiment: as above; assay type: cell-based
T2 sequence (P19145 1-602 K9R/K16R): B1 chain

[3] = substrate: NCC(=O)O; experiment: cells, lysate or membranes; assay type: cell-based, Saccharomyces cerevisiae; conditions: active site (amino acid binding pocket)

Molecule | Ki (Gap1p [1]) [µM] | Ki (Gap1p [2]) [µM] | Km [3] [µM]
NC(=O)NCCC[C@H](N)C(=O)O [citrulline] | ~35.6 | ~36.6 | –
B1 | – | – | 20.0 ± 5.3
B2 | – | – | 12.7 ± 1.12
